# B1: BDNF: Brain-derived neurotrophic factor, a neurotrophic factor binding TRKB (protein, UniProt P23560 19-247, looked up)
# Neurotrophic factor BDNF …: APMKEANIRGQGGLAYPGVRTHGTLESVNGPKAGSRGLTSLADTFEHVIEELLDEDQKVRPNEENNKDADLYTSRVMLSSQVPLEPPLLFLLEEYKNYLDAANMSMRVRRHSDPARRGELSVCDSISEWVTAADKKTAVDMSGGTVTVLEKVPVSKGQLKQYFYETKCNPMGYTKEGCRGIDKRHWNSQCRTTQSYVRALTMDSKKRIGWRFIRIDTSCVCTLTIKRGR
# Columns and labels:
# [1] = test system: Aβ-GFP SH-SY5Y cells; assay: ERK/PI3K kinase inhibitor treatment, immunoblot of TRKB downstream targets; format: cell-based, Human; details: 5 μM; induced untreated 61–64%
# [2] = test system: Aβ-GFP SH-SY5Y cells; assay: Aβ folding reporter GFP fluorescence; format: cell-based, Human; details: for intensity of GFP fluorescence: untreated cells 100%; for EC50: Homo sapiens, 144 h, Aβ-GFP SH-SY5Y cells, compounds 1.2–5 μM, Dox 6 days, read-out: Aβ aggregation inhibition EC50 (GFP fluorescence)
# Experimental: Human neuroblastoma SH-SY5Y-derived Aβ-GFP cells were maintained as stated. The recombinant Aβ-GFP protein has a 12 amino acid-containing linker between the fused Aβ and GFP. Doxycycline (5 μg/ml; Sigma-Aldrich) was used to induce Aβ-GFP expression.
# Neuronal differentiation of Aβ-GFP SH-SY5Y cells was induced by retinoic acid (10 μM; Sigma-Aldrich). Cells on 96-well plate (2.5 × 10^4/well) were seeded on day 1, pre-treated with test compounds (1.2–5 μM) plus induced Aβ-GFP expression (5 μg/ml doxycycline) on day 2, and stained with Hoechst 33342 (0.1 μg/ml; Sigma-Aldrich) on day 8 as stated. Cell images were then captured at 482 nm excitation/536 nm emission wavelengths (ImageXpress Micro Confocal high-content system) and analyzed (MetaXpress image acquisition and analysis software) (Molecular Devices, Sunnyvale, CA, USA). In addition, ROS was quantified on day 8 following CellROX Deep Red stain (5 μM; Molecular Probes, Waltham, MA, USA) using the high-content system with excitation/emission wavelengths of 644/665 nm.
# [3] = DPPH free radical scavenging assay; format: biochemical; details: compounds 10–160 μM
# Experimental: (§1) Thioflavin T is widely used to visualize and quantify the presence of misfolded amyloid protein aggregates in vitro [59]. […] In addition, DPPH radical (Sigma-Aldrich) was used to assay the free radical scavenging capacity of kaempferol, LM-031 and analogs (10–160 μM) as stated.
# [4] = in vitro; format: in vitro ADME
# Experimental: The permeability of LMDS-1 and -2 was determined by a PAMPA-BBB assay. Firstly, 300 μl of LMDS-1 or -2 (1 μM) solution were added to the donor well (Millipore). Bupropion (a high permeability marker), piroxicam (a low permeability marker), and lucifer yellow (an integrity marker) (Sigma-Aldrich) were used as quality control (QC) compounds for comparison. The sandwich with aqueous donor on the bottom, artificial lipid membrane (PVDF filter coated with porcine polar brain lipid) in the middle, and aqueous acceptor (5% DMSO in PBS) on the top was assembled as stated. Each compound was tested in triplicate. After incubation for 18 h at the ambient temperature, the PAMPA sandwich plate was separated. The concentrations of test and QC compounds in the donor and acceptor wells were measured as stated, and the effective permeability coefficient (Pe) was computed.
# [5] = test system: Aβ-GFP SH-SY5Y cells; assay: Comparison of BDNF and LMDS compounds on TRKB signaling, immunoblot; format: cell-based, Human; details: for p-CREB: induced untreated 42%; for p-ERK: induced untreated 64%; for p-AKT: induced untreated 65%
# Experimental: (§2) Total proteins from Aβ-GFP SH-SY5Y cells were prepared, quantified, electrophoretically separated and blotted as stated. Following blocking, the membrane was probed with antibody against BDNF (1:500; Santa Cruz Biotechnology #sc-546, Santa Cruz, CA, USA), BCL2 (1:200; Santa Cruz Biotechnology #sc-7382), BAX (1:200; Santa Cruz Biotechnology #sc-7480), TRKB (1:500; Cell Signaling Technology #4603, Danvers, MA, USA), p-TRKB (Y516) (1:200; GeneTex #GTX32230, Irvine, CA, USA), p-TRKB (Y816) (1:1000; Millipore #ABN1381, Billerica, MA, USA), ERK (1:1000; Cell Signaling Technology #9102), p-ERK (T202/Y204) (1:1000; Cell Signaling Technology #9101), AKT (1:1000; Abcam #ab126811, Cambridge, CB, UK), p-AKT (S473) (1:1000; Cell Signaling Technology #4060), CREB (1:500; Santa Cruz Biotechnology #sc-186), p-CREB (S133) (1:1000; Millipore #06-519), or loading control GAPDH (glyceraldehyde-3-phosphate dehydrogenase) (1:1000; MDBio #30000002, Taipei, Taiwan). The immune complexes were detected as stated.
# [6] = test system: Aβ-GFP SH-SY5Y cells; assay: ERK/PI3K kinase inhibitor treatment, immunoblot of TRKB downstream targets; format: cell-based, Human
# Experimental: Cells were plated in the presence of retinoic acid (5 × 10^5/6-well) on day 1, treated with tested compounds (5 μM) plus induced Aβ-GFP expression with doxycycline (5μg/ml) on day 2, as stated. Kinase inhibitors U0126 (an inhibitor of ERK) or wortmannin (an inhibitor of PI3K) (LC Laboratories, Woburn, MA, USA) (10 μM) were added on day 6. The cells were collected on day 8 for BDNF, BCL2, BAX, total/phosphorylated TRKB, ERK, AKT, and CREB protein analysis as previously stated.
# as §2
# [7] = molecular target: T1, Aβ42 peptide (Homo sapiens, UniProt P05067); assay: Thioflavin T Aβ aggregation inhibition assay; format: biochemical; details: Aβ42, compounds 5–20 μM
# T1 construct: assessed by using Aβ42 peptide (AnaSpec, Fremont, CA, USA); purchased AnaSpec
# Experimental: as §1
# [8] = 5 μM plus U0126 or wortmannin 10 μM
# [9] = 5 μM, no kinase inhibitor, induced untreated 70–71%
# T1 sequence (P05067 672-713 limits assumed): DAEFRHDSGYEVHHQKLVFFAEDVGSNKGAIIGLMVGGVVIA
molecule,measurement,setting,value
O=C(c1ccccc1)c1cc2ccc(O)cc2oc1=O [LMDS-2],p-TRKB Y516 and Y817,[1],113–123%
same,intensity of GFP fluorescence,[2]; 1.2–5 μM,111–149%
same,EC50,[2],7.5 µM
same,EC50,[3],146 µM
same,PAMPA-BBB classification,[4],BBB^+ (moderate)
same,"Papp at 18 h, 1 μM",[4]; PAMPA,3.81 ± 0.13 ×10⁻⁶ cm/s
same,p-CREB,[5]; 5 μM,85–97%
same,p-ERK,[5]; 5 μM,94–111%
same,p-AKT,[5]; 5 μM,115–118%
same,p-ERK level,[6]; 5 μM plus U0126 10 μM,38–43%
same,BAX,[6]; [8],152–191%
same,BCL2,[6]; [8],80–121%
same,p-CREB,[6]; [8],52–84%
same,pro- and m-BDNF,[6]; [8],65–88%
same,BCL2,"[6]; 5 μM, induced untreated 44%",156–199%
same,p-CREB,"[6]; 5 μM, induced untreated 66%",127–142%
same,pro- and m-BDNF,"[6]; 5 μM, induced untreated 68–52%",100–169%
same,BAX,"[6]; 5 μM, induced untreated 225%",121–130%
same,p-AKT level,[6]; [9],110–111%
same,p-ERK level,[6]; [9],115%
same,EC50,[7],18 µM
COc1ccc2cc(C(=O)c3ccccc3)c(=O)oc2c1 [LMDS-3],intensity of GFP fluorescence,[2]; 2.5–5 μM,111–149%
same,EC50,[2],11 µM
same,EC50,[3],167 µM
same,PAMPA-BBB classification,[4],BBB^+ (high)
same,"Papp at 18 h, 1 μM",[4]; PAMPA,11.8 ± 4.11 ×10⁻⁶ cm/s
same,EC50,[7],14 µM
CC(=O)Oc1ccc2cc(C(=O)c3ccccc3)c(=O)oc2c1 [LMDS-4],intensity of GFP fluorescence,[2]; 1.2–5 μM,111–149%
same,EC50,[2],7.2 µM
same,EC50,[3],116 µM
same,"recovery at 18 h, 1 µM",[4]; PAMPA,12.7%
same,EC50,[7],< 5 µM
"CN1C(C(=O)Nc2ccccn2)=C(O)c2ccccc2S1(=O)=O [Piroxicam, piroxicam, reference compound]","Papp at 18 h, 1 μM",[4]; PAMPA,1.65 ± 0.17 ×10⁻⁶ cm/s
lucifer yellow [reference compound],% transport,[4]; PAMPA,0.00 (% Transport)
B1,p-CREB,[5]; 100 ng/ml,85–97%
same,p-ERK,[5]; 100 ng/ml,94–111%
same,p-AKT,[5]; 100 ng/ml,115–118%
